Read-outs that look alike come from different tables or passages of the source.
Tested on: ATF4
Assay: ATF4 expression inhibition assay (ATF4 5'UTR luciferase reporter, Tg-stressed HEK293T cells)
Assay type: cell-based, human
Details: for inhibition at 0.1 µM: read-out: % ATF4 inhibition at 100 nM; for IC50: read-out: ATF4 inhbition IC50; for inhibition at 1 µM: read-out: % ATF4 inhibition at 1 μM
Description: The ATF4 reporter was prepared by fusing the human full length 5′UTR of ATF4 (NCBI Accession No. BC022088.2) upstream of the firefly luciferase coding sequence lacking the initiator methionine. The fused sequence was cloned into pLenti-EF1a-C-Myc-DDK-IRES-Puro cloning vector (Origen #PS100085) using standard methods. Virus production was carried out by using Lenti-X™ Packaging Single Shots Protocol (Clonetech #631276). Viral particles were used to transduce HEK293T cells (ATCC #CRL-3216, ATCC Manassas, Va.), which were subsequently selected with puromycin to generate stable cell line. Cells were maintained at 37° C. and 5% CO2 in DMEM-F12 (Hyclone #SH30023.02) supplemented with 10% heat-inactivated fetal bovine serum (Gibco #16000-044), 2 mM L-glutamine (Gibco #25030-081), 100 U/ml penicillin, and 100 μg/ml streptomycin (Gibco #15140-122).
HEK293T cells carrying the ATF4 luciferase reporter were plated on 96-well plates (Nunc) at 10,000 cells per well. Cells were treated two days after seeding with 100 nM thapsigargin (Tg) (Sigma-Aldrich #T9033) in the presence of 100 nM or 1 μM. For the assessment of the half-maximal inhibitory concentration (IC50) for selected compounds, dose-response assays were performed. Compounds were serially diluted using DMSO ranging from 0.1 nM to 1 μM. Cells without treatment or cells treated with Tg alone were used as controls. Assay plates containing cells were incubated for 3 hours at 37° C.
Luciferase reactions were performed using Luciferase Assay System (Promega #E1501) as specified by the manufacturer. Luminescence was read with an integration time of 1 s and a gain of 110 using a Cytation-5 multi-mode microplate reader (BioTek). Relative luminescence units were normalized to Tg treatment (0% inhibition) and untreated cells (100% inhibition) and the percentage of ATF4 inhibition was calculated.
Percentages of ATF4 inhibition after induction with Tg in the presence of 100 nM or 1 μM of certain test compounds are shown in Table 2. Also shown in Table 2 is the calculated IC50 for certain test compounds. […] Accordingly, inhibition of ATF4 expression as a result of the test compound indicates suppression of the ISR pathway.

[1] = Homo sapiens, HEK-293T, 3 h, 100 nM test compound, 100 nM thapsigargin, 3 hours, HEK293T ATF4 luciferase reporter
[2] = Homo sapiens, HEK-293T, 3 h, 100 nM thapsigargin, 3 hours, HEK293T ATF4 luciferase reporter
[3] = Homo sapiens, HEK-293T, 3 h, 1 μM test compound, 100 nM thapsigargin, 3 hours, HEK293T ATF4 luciferase reporter

Compound	inhibition at 0.1 µM [1] [%]	IC50 [2] [nM]	inhibition at 1 µM [3] [%]	also measured
O=C(COc1ccc(Cl)c(F)c1)NC1CCN(NCC(O)COc2ccc(Cl)c(F)c2)CC1 (centres unmarked) [Compound 7, 2-(4-chloro-3-fluorophenoxy)-N-(1-((3-(4-chloro-3-fluorophenoxy)-2-hydroxypropyl)amino)piperidin-4-yl)acetamide]	16.1	> 1000	13.9	–
O=C(COc1ccc(Cl)c(F)c1)NC1CCN(NC(=O)c2nc3cc(Cl)ccc3s2)CC1 [Compound 9, 5-chloro-N-(4-(2-(4-chloro-3-fluorophenoxy)acetamido)piperidin-1-yl)benzo[d]thiazole-2-carboxamide]	77.1	< 100	86.8	–
O=C(COc1ccc(Cl)c(F)c1)NN1CCC(NC(=O)c2nc3cc(Cl)ccc3s2)CC1 [Compound 10, 5-chloro-N-(1-(2-(4-chloro-3-fluorophenoxy)acetamido)piperidin-4-yl)benzo[d]thiazole-2-carboxamide]	68.2	< 100	87.2	–
O=C(COc1ccc(Cl)c(F)c1)NC1CCN(NC(=O)C2Cc3cc(Cl)ccc3O2)CC1 (centres unmarked) [Compound 11, 5-chloro-N-(4-(2-(4-chloro-3-fluorophenoxy)acetamido)piperidin-1-yl)-2,3-dihydrobenzofuran-2-carboxamide]	67.8	< 100	90.5	–
O=C(COc1ccc(Cl)c(F)c1)NN1CCC(NC(=O)C2Cc3cc(Cl)ccc3O2)CC1 (centres unmarked) [Compound 12, 5-chloro-N-(1-(2-(4-chloro-3-fluorophenoxy)acetamido)piperidin-4-yl)-2,3-dihydrobenzofuran-2-carboxamide]	69.4	< 100	88.5	–
O=C(NN1CCN(CC(O)COc2ccc(Cl)c(F)c2)CC1)C1Cc2cc(Cl)ccc2O1 (centres unmarked) [Compound 13, 5-chloro-N-(4-(3-(4-chloro-3-fluorophenoxy)-2-hydroxypropyl)piperazin-1-yl)-2,3-dihydrobenzofuran-2-carboxamide]	–	–	–	% ATF4 inhibition at 100 nM (100 nM test compound, 100 nM thapsigargin, 3 hours, HEK293T ATF4 luciferase reporter): 60.7%; IC50 (100 nM thapsigargin, 3 hours, HEK293T ATF4 luciferase reporter): < 100 nM; % ATF4 inhibition at 1 μM (1 μM test compound, 100 nM thapsigargin, 3 hours, HEK293T ATF4 luciferase reporter): 86.7%
O=C(NC1CCN(NCC(O)COc2ccc(Cl)c(F)c2)CC1)c1ccc2cc(Cl)ccc2n1 (centres unmarked) [Compound 25, 6-chloro-N-(1-((3-(4-chloro-3-fluorophenoxy)-2-hydroxypropyl)amino)piperidin-4-yl)quinoline-2-carboxamide]	8.1	> 1000	8.5	–
O=C(NC1CCN(NCC(O)COc2ccc(Cl)c(F)c2)CC1)c1cc2cc(Cl)ccc2o1 (centres unmarked) [Compound 26, 5-chloro-N-(1-((3-(4-chloro-3-fluorophenoxy)-2-hydroxypropyl)amino)piperidin-4-yl)benzofuran-2-carboxamide]	37.5	–	49.4	–
O=C(COc1ccc(C(F)(F)F)cc1)NC1CCN(NC(=O)COc2ccc(C(F)(F)F)cc2)CC1 [Compound 35, N,N′-(piperidine-1,4-diyl)bis(2-(4-(trifluoromethyl)phenoxy)acetamide)]	92.1	< 100	91.6	–
O=C(COc1ccc(Cl)c([N+](=O)[O-])c1)NC1CCN(NC(=O)COc2ccc(Cl)c(F)c2)CC1 [Compound 39, 2-(4-chloro-3-fluorophenoxy)-N-(4-(2-(4-chloro-3-nitrophenoxy)acetamido)piperidin-1-yl)acetamide]	–	–	–	inhibition at 0.1 µM (Homo sapiens, HEK-293T, 3 h): 91%; inhibition at 1 µM (Homo sapiens, HEK-293T, 3 h): 91.5%; IC50 (Homo sapiens, HEK-293T, 3 h): < 100 nM
O=C(NC1CCN(NCC(O)COc2ccc(Cl)c(F)c2)CC1)C1Cc2cc(Cl)ccc2O1 (centres unmarked) [Compound 70, 5-chloro-N-(1-((3-(4-chloro-3-fluorophenoxy)-2-hydroxypropyl)amino)piperidin-4-yl)-2,3-dihydrobenzofuran-2-carboxamide]	0.4	> 1000	21.4	–

Reference: patent US11166942B2 (PRAXIS BIOTECH LLC, priority 2018, dated 2021)
